Results published in PubChem BioAssay (NCI).
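All cell lines were grown in 96-well plates and treated with compound for 48 hours. At the GI50, growth is halved. TGI: total growth inhibition.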

Legend:
Assay in all cases: DTP human tumour cell line panel, 48 h
HCC-2998 colon = system: HCC-2998 colon
SK-OV-3 ovarian = system: SK-OV-3 ovarian
U251 CNS = system: U251 CNS
BT-549 breast = system: BT-549 breast
A549 NSCLC = system: A549 NSCLC
MDA-MB-231 breast = system: MDA-MB-231 breast
A498 renal = system: A498 renal
M14 melanoma = system: M14 melanoma
MOLT-4 leukemia = system: MOLT-4 leukemia
OVCAR-3 ovarian = system: OVCAR-3 ovarian

Structure (SMILES)	GI50 (HCC-2998 colon)	TGI (HCC-2998 colon)	GI50 (SK-OV-3 ovarian)	TGI (SK-OV-3 ovarian)	GI50 (U251 CNS)	TGI (U251 CNS)	GI50 (BT-549 breast)	GI50 (A549 NSCLC)	TGI (A549 NSCLC)	GI50 (MDA-MB-231 breast)	TGI (MDA-MB-231 breast)	GI50 (A498 renal)	TGI (A498 renal)	GI50 (M14 melanoma)	TGI (M14 melanoma)	GI50 (MOLT-4 leukemia)	TGI (MOLT-4 leukemia)	GI50 (OVCAR-3 ovarian)	TGI (OVCAR-3 ovarian)	TGI (BT-549 breast)
N#CCCNc1nonc1-c1nc2ccccc2n1CC(=O)c1ccc(NC(=O)[C@@H](N)CCCCN)cc1	0.0308 µM	> 92.2 µM	0.0313 µM	> 100 µM	0.0445 µM	> 100 µM	0.0311 µM	0.0463 µM	> 100 µM	0.0599 µM	> 100 µM	0.0154 µM	1.89 µM	0.0199 µM	0.0685 µM	0.0451 µM	> 100 µM	0.0235 µM	0.0542 µM	
Cc1cc(C)c(C2CNCc3cc4c(cc32)CNCC4c2c(C)cc(C)cc2C)c(C)c1 (centres undefined)	1.82 µg/mL	3.85 µg/mL	10.2 µg/mL	21.8 µg/mL	2.54 µg/mL	5.59 µg/mL	4.39 µg/mL	4.53 µg/mL	15.8 µg/mL	2.42 µg/mL	11.4 µg/mL	2.06 µg/mL	4.48 µg/mL	1.83 µg/mL	3.28 µg/mL	2.95 µg/mL	8.55 µg/mL	1.91 µg/mL	4.27 µg/mL	15.9 µg/mL
C[CH2][Hg][S]c1ccccc1C(=O)O	1.67 µM	3.08 µM	2.77 µM	8.21 µM	1.56 µM	3.03 µM	1.43 µM	1.78 µM	3.94 µM	1.26 µM	2.58 µM	1.64 µM	4.04 µM	1.36 µM	2.74 µM	2.43 µM	6.7 µM	0.871 µM	2.09 µM	2.76 µM
CC(=O)O[C@@H]1C[C@@]2(C)[C@@H]3CC=C4[C@@H](C[C@H](O)C(=O)C4(C)C)[C@]3(C)C(=O)C[C@]2(C)[C@H]1[C@@](C)(O)C(=O)/C=C/C(C)(C)OC(C)=O		16.5 µM		51.5 µM		10.5 µM			> 48.2 µM		> 21.8 µM		0.0591 µM		14.9 µM		> 31.6 µM		> 100 µM	0.713 µM
COc1ccc(C(=O)/C=C/c2ccc(OCC#N)cc2)cc1		31.8 µM		> 100 µM		32.5 µM			> 100 µM		72.5 µM		96.3 µM		42 µM		77.1 µM		> 100 µM	31.6 µM
Nc1nc(N)c(CCCCc2ccccc2)c(N)n1		> 100 µM		> 100 µM		> 100 µM			> 100 µM		> 100 µM		> 100 µM		> 100 µM		> 100 µM		> 100 µM	> 100 µM
CCc1c(C)nc2sc3c(N)ncnc3c2c1C	> 25 µM	> 25 µM	> 25 µM	> 25 µM	> 25 µM	> 25 µM	> 25 µM	> 25 µM	> 25 µM	> 25 µM	> 25 µM	> 25 µM	> 25 µM	> 25 µM	> 25 µM	> 25 µM	> 25 µM	> 25 µM	> 25 µM	> 25 µM
CC1c2ccccc2CCN1c1ccc(CO)c(Cl)c1 (centres undefined)	2.95 µM	17.6 µM	1.61 µM	10.7 µM	0.318 µM	> 46.1 µM	17.2 µM	0.759 µM	17.1 µM	15.5 µM	58.4 µM	0.0149 µM	0.0888 µM	22.5 µM	58.2 µM	24.6 µM	77.7 µM	0.171 µM	3.36 µM	37.7 µM
Oc1c(-c2cc(C(F)(F)F)[nH]n2)cc(Cl)c(OCc2ccc(Cl)cc2)c1-c1ccc(Cl)c(C(F)(F)F)c1	0.739 µM	4.53 µM	1.54 µM	4.66 µM	0.5 µM	5.76 µM	0.624 µM	1.24 µM	6.39 µM	0.46 µM	3.07 µM	0.0996 µM	0.484 µM	0.851 µM	2.44 µM	0.903 µM	3.2 µM	0.315 µM	5.5 µM	2.16 µM
COc1cc2c(cc1F)C(c1ccccc1Cl)=Nc1c(n[nH]c1C)N2	11.3 µM	24.1 µM	1.59 µM	33.1 µM	0.583 µM	18.3 µM	2.7 µM	0.938 µM	23.9 µM	2.12 µM	16.9 µM	2.06 µM	9.97 µM	0.911 µM	22 µM	5 µM	38.6 µM	0.597 µM	21.6 µM	20.5 µM
